Assay results from PMC10257182, “Discovery of senolytics using machine learning” (Nature Communications, 2023).
Where “and” joins values, the source holds several entries; their conditions need not be identical. Identical values can stand only once.

Key:
Assay type in all cases: cell-based, human
[1] = system: non-senescent control A549 cells; assay: Nuclei count senolytic assay, TIS model, non-senescent control cells; conditions: Control cells, mean
Procedure: (§1) We performed a second validation of the effectiveness of our machine learning models using a different stressor. We focused on therapy-induced senescence (TIS, Supplementary Fig. 6a), where human epithelial cancerous cells (A549) were induced to become senescent by addition of etoposide. Cells were treated with 100 μM etoposide for 48 h, followed by another three days of exposure to media in standard conditions.
(§2) We performed experimental validation of the compounds with z-score > 8 (Fig. 2e). […] We employed two cellular models of senescence: one of OIS and a second one of TIS. For the OIS case, we utilised IMR90 ER:RAS cells with 4-OHT at 100 nM. […] For the TIS model, we used A549 cells with etoposide at 100 μM. The exposure of the cells to etoposide lasted 48 h, after which period the cells were cultivated for a further three days with normal media.
(§3) IMR90 (CCL-186) human foetal lung fibroblasts and A549 (CCL-185) human lung adenocarcinoma cells were obtained from the American Type Culture Collection (ATCC, Manassas, VA). The cell lines were confirmed to be mycoplasma negative (Lonza MycoAlert, cat #LT07-118). IMR90 ER:RAS is a derivative of IMR90 cells expressing a switchable version of oncogenic H-Ras[84]. IMR90 ER:RAS and A549 cells were maintained in Dulbecco’s Modified Eagle Medium (DMEM, ThermoFisher) supplemented with foetal bovine serum (10%), L-glutamine (2 mM, ThermoFisher), and antibiotic-antimycotic solution (1%, ThermoFisher) and incubated under standard tissue culture conditions (37 °C and 5% CO2). For induction of the senescent phenotype, IMR90-ER:RAS cells were cultured in hydroxytamoxifen (4-OHT) (Sigma) added media at 100 nM final concentration. IMR90 were kept in culture for over 27 passages for replicative senescence. Cells were tested for mycoplasma on a regular basis.
(§4) Cells were seeded (50 μL per well) into 384-well plates (IMR90 ER:RAS cells in Nunc Optical Bottom Polybase Microplates [#142761, Thermo Scientific, Rochester, NY] and A549 cells in CELLSTAR Cell Culture Microplates [#781091, Greiner Bio-One, Kremsmünster, Austria]). Cells were incubated under standard tissue culture conditions for 24 h before the addition of compounds. Passage 14 IMR90 ER:RAS cells were seeded at 1300 cells per well in the control condition, and at 1600 cells per well in the senescent case. Passage 34 A549 cells were seeded at 7000 cells per well in the control condition, and at 10,000 cells per well in the senescent case.
(§5) Dose response plates were prepared with a DMSO control and a 10-point […] concentration range, and added to the compounds using a D300e digital dispenser (Tecan Trading AG, Switzerland) at a final concentration of between 10 μM and 10 nM. Every screened condition was carried out in triplicate. After 72 h of incubation with exposure to the compounds, cells were fixed by the addition of an equal volume of formaldehyde (8%, 50 μL; #BP531-500, Fisher Bioreagents, Fisher Scientific, Loughborough, Leicestershire) to the existing media, incubated at room temperature (30 min), and washed three times in phosphate-buffered saline (PBS). Cells were then permeabilised in Triton-X100 (0.1%, 50 μL) and incubated at room temperature (30 min) followed by three more washes with PBS.
(§6) Cells were stained with Hoechst 33342 for nuclei count (excitation/emission wavelength at 387/447 […], DAPI channel, original concentration at 10 mg/ml, final concentration at 2 μg/ml; H1399, Molecular Probes, Eugene, OR). The staining solution was prepared in bovine serum albumin solution (10%). The staining solution was added to each well (30 μL) and incubated in the dark at room temperature (30 min), followed by three washes with PBS and no final aspiration. Plates were foil sealed.
(§7) Plates were imaged on an ImageXpress micro XLS (Molecular Devices, Eugene, OR) equipped with a robotic plate loader (Scara4, PAA, UK).

[2] = system: senescent A549 cells (etoposide-induced); assay: Nuclei count senolytic assay, therapy-induced senescence (TIS) model, senescent cells; conditions: Senescent cells, mean
Procedure: as §1, §2, §3, §4, §5, §6, §7

[3] = system: non-senescent control IMR90 ER:RAS cells; assay: Nuclei count (Hoechst, high content imaging) senolytic assay, OIS model, non-senescent control cells; conditions: for Mean % Cell Survival: mean n=3 (Fig 3C)
Excerpt: To test for senolytic activity, we compared the effect of each compound on the total cell number (automated high content image-based analysis of total number of nuclei per well) in non-senescent and senescent IMR90 ER:RAS cultures treated with the top hits from the computational screen (Figs. 2e and 3a–d and Supplementary Fig. 4a–c). The drop in cell number compared to untreated controls is indicated by the nuclei count and reflects cell death[13],[15]. As positive control, we employed ouabain, a cardiac glycoside with well characterised senolytic activity.
as §2, §3, §4, §5, §6

C=Cc1c(C)c2cc3nc(cc4[nH]c(cc5nc(cc1[nH]2)C(C)=C5CCC(=O)O)c(CCC(=O)OC)c4C)[C@@]1(C)C3=CC=C(C(=O)OC)[C@H]1C(=O)OC [Verteporfin, verteporfin, reference compound]
Mean % Cell Survival ([1]; log (dose) [M] -5): 113.771%
Mean % Cell Survival ([1]; log (dose) [M] -5.33): 108.79%
Mean % Cell Survival ([1]; log (dose) [M] -5.66): 94.7872%
Mean % Cell Survival ([1]; log (dose) [M] -6): 92.365%
Mean % Cell Survival ([1]; log (dose) [M] -6.33): 96.0501%
Mean % Cell Survival ([1]; log (dose) [M] -6.66): 101.194%
Mean % Cell Survival ([1]; log (dose) [M] -7): 90.846%
Mean % Cell Survival ([1]; log (dose) [M] -7.33): 108.359%
Mean % Cell Survival ([1]; log (dose) [M] -7.66): 100.589%
Mean % Cell Survival ([1]; log (dose) [M] -8): 97.9379%
Mean % Cell Survival ([2]; log (dose) [M] -5): 118.472%
Mean % Cell Survival ([2]; log (dose) [M] -5.33): 98.5505%
Mean % Cell Survival ([2]; log (dose) [M] -5.66): 115.47%
Mean % Cell Survival ([2]; log (dose) [M] -6): 116.11%
Mean % Cell Survival ([2]; log (dose) [M] -6.33): 114.215%
Mean % Cell Survival ([2]; log (dose) [M] -6.66): 107.66%
Mean % Cell Survival ([2]; log (dose) [M] -7): 100.361%
Mean % Cell Survival ([2]; log (dose) [M] -7.33): 89.0589%
Mean % Cell Survival ([2]; log (dose) [M] -7.66): 106.923%
Mean % Cell Survival ([2]; log (dose) [M] -8): 100.292%
% Cell Survival ([3]; Control cells, log (dose) [M] -5, individual replicates, SUP FIG 4C): 101.159% and 129.718% and 89.9175%
% Cell Survival ([3]; Control cells, log (dose) [M] -5.33, individual replicates, SUP FIG 4C): 94.2029% and 128.701% and 95.0504%
% Cell Survival ([3]; Control cells, log (dose) [M] -5.66, individual replicates, SUP FIG 4C): 94.8792% and 127.571% and 91.1091%
% Cell Survival ([3]; Control cells, log (dose) [M] -6, individual replicates, SUP FIG 4C): 109.082% and 120% and 89.2759%
% Cell Survival ([3]; Control cells, log (dose) [M] -6.33, individual replicates, SUP FIG 4C): 132.367% and 79.661% and 117.324%
% Cell Survival ([3]; Control cells, log (dose) [M] -6.66, individual replicates, SUP FIG 4C): 84.5411% and 110.056% and 78.5518%
% Cell Survival ([3]; Control cells, log (dose) [M] -7, individual replicates, SUP FIG 4C): 102.222% and 109.492% and 85.1512%
% Cell Survival ([3]; Control cells, log (dose) [M] -7.33, individual replicates, SUP FIG 4C): 97.1981% and 115.141% and 84.143%
% Cell Survival ([3]; Control cells, log (dose) [M] -7.66, individual replicates, SUP FIG 4C): 102.705% and 116.158% and 105.408%
% Cell Survival ([3]; Control cells, log (dose) [M] -8, individual replicates, SUP FIG 4C): 88.6957% and 107.684% and 93.9505%
Mean % Cell Survival ([3]; Control, log (dose) [M] -5, 72 h): 106.931%
Mean % Cell Survival ([3]; Control, log (dose) [M] -5.33, 72 h): 105.985%
Mean % Cell Survival ([3]; Control, log (dose) [M] -5.66, 72 h): 104.52%
Mean % Cell Survival ([3]; Control, log (dose) [M] -6, 72 h): 106.119%
Mean % Cell Survival ([3]; Control, log (dose) [M] -6.33, 72 h): 109.784%
Mean % Cell Survival ([3]; Control, log (dose) [M] -6.66, 72 h): 91.0498%
Mean % Cell Survival ([3]; Control, log (dose) [M] -7, 72 h): 98.955%
Mean % Cell Survival ([3]; Control, log (dose) [M] -7.33, 72 h): 98.8274%
Mean % Cell Survival ([3]; Control, log (dose) [M] -7.66, 72 h): 108.09%
Mean % Cell Survival ([3]; Control, log (dose) [M] -8, 72 h): 96.7766%
% Cell Survival ([3]; Control, log (dose) [M] -5): 103.991% and 103.701% and 133.622%
% Cell Survival ([3]; Control, log (dose) [M] -5.33): 95.6459% and 122.354% and 108.369%
% Cell Survival ([3]; Control, log (dose) [M] -5.66): 83.672% and 98.7417% and 101.948%
% Cell Survival ([3]; Control, log (dose) [M] -6): 86.9376% and 90.2295% and 99.9278%
% Cell Survival ([3]; Control, log (dose) [M] -6.33): 101.524% and 93.2642% and 93.3622%
% Cell Survival ([3]; Control, log (dose) [M] -6.66): 98.4035% and 102.221% and 102.958%
% Cell Survival ([3]; Control, log (dose) [M] -7): 87.0827% and 92.5981% and 92.8571%
% Cell Survival ([3]; Control, log (dose) [M] -7.33): 115.893% and 95.1147% and 114.069%
% Cell Survival ([3]; Control, log (dose) [M] -7.66): 103.991% and 94.8187% and 102.958%
% Cell Survival ([3]; Control, log (dose) [M] -8): 101.306% and 100.444% and 92.0635%
